{"source": "ChEMBL document CHEMBL1139559", "about": "“Radical scavenging activity of protein from tentacles of jellyfish Rhopilema esculentum” (Bioorg Med Chem Lett, 2005)", "key": {"[1]": {"test": "Effective concentration required for scavenging of superoxide anion radical generation from the tentical protein of jellyfish", "assay_type": "functional, Rhopilema esculentum"}, "[2]": {"test": "Effective concentration required for scavenging of hydroxyl radical generation from the tentical protein of jellyfish", "assay_type": "functional, Rhopilema esculentum"}}}
{"smiles": "Cc1c(C)c2c(c(C)c1O)CC[C@@](C)(CCC[C@H](C)CCC[C@H](C)CCCC(C)C)O2", "note": "[ALPHA-TOCOPHEROL]", "values": [{"measurement": "EC50", "setting": "[1]", "value": 88, "unit": "mg/L"}]}
{"smiles": "COc1ccc(O)c(C(C)(C)C)c1.COc1ccc(O)cc1C(C)(C)C", "note": "[BUTYLATED HYDROXYANISOLE]", "values": [{"measurement": "EC50", "setting": "[1]", "value": 31, "unit": "mg/L"}]}
{"smiles": "Cc1cc(C(C)(C)C)c(O)c(C(C)(C)C)c1", "note": "[BUTYLATED HYDROXYTOLUENE]", "values": [{"measurement": "EC50", "setting": "[1]", "value": 61, "unit": "mg/L"}]}
{"smiles": "OC[C@@H](O)[C@@H](O)[C@H](O)[C@H](O)CO", "note": "[MANNITOL]", "values": [{"measurement": "EC50", "setting": "[2]", "value": 4536, "unit": "mg/L"}]}
